Experimental data taken from patent publication US20190077724A1, “COMPOSITIONS AND METHODS FOR CROP NUTRITION” (AdvanSix Resins & Chemicals LLC, priority 2017, published 2019).

Assay: NBPT comparative solubility in solvents
Type: physicochemical
Conditions: room temperature; for maximum weight percentage of NBPT dissolved in the solvent: vials with 20, 30, 40 and 50 wt. % NBPT
Experimental: The solubility of the N-(n-butyl) thiophosphoric triamide (NBPT) was determined for thirteen solvents. Three of the solvents were caprolactam-derived solvents in accordance with compositions of this disclosure. The remaining ten were comparative solvents. The NBPT was 98% (HPLC) obtained from AK Scientific, Inc., Union City, California. The N-methyl-2-pyrrolidone was at least 99% pure and obtained from Sigma Aldrich of St. Louis, Missouri. The N-butyl-2-pyrrolidone was at least 98% pure and obtained from TCI America of Portland, Oregon. The methyl-5-(dimethylamino)-2-methyl-5-oxopentanoate/propylene glycol was 70-90% pure and obtained from Solvay S. A. of Princeton, N.J.
The solubility of NBPT was evaluated for each solvent by preparing four, 2 ml vials containing 20 wt. %, 30 wt. %, 40 wt. % and 50 wt. % of NBPT. To prepare the 20 wt. % vial, 0.040 g of NBPT was added to 0.160 ml of solvent. To prepare the 30 wt. % vial, 0.060 g of NBPT was added to 0.140 ml of solvent. To prepare the 40 wt. % vial, […] of NBPT was added to 0.120 ml of solvent. To prepare the 50 wt. % vial, 0.100 g of NBPT was added to 0.100 ml of solvent. The vials were capped and swirled at room temperature until no change in solubility was observed.
Solvents 1-3 are in accordance with compositions of the present disclosure. Solvents 4-13 are comparative solvents.

Structure (SMILES)	maximum weight percentage of NBPT dissolved in the solvent [%]	NBPT dissolving performance compared with NMP
COC(=O)CCCCC(=O)N(C)C [N,N-dimethyladipamide methyl ester]	40	–
CCCCCCCCCC(=O)N(C)C [N,N-dimethyldecanamide]	20	–
N#CCCN1CCCCCC1=O [N-(2-cyanoethyl)caprolactam]	<20	–
CCCCN1CCCC1=O [N-butyl-2-pyrrolidone]	50	–
CCCCN1CCCCCC1=O [N-butylcaprolactam]	40	performed nearly as well as NMP
CCN1CCCCCC1=O [N-ethylcaprolactam]	50	performed as well as NMP
CN1CCCC1=O [N-methyl-2-pyrrolidone]	50	–
CN1CCCCCC1=O [N-methylcaprolactam]	50	performed as well as NMP
O=C1CCCCC1 [cyclohexanone]	40	–
CC(=O)OC1CCCCC1 [cyclohexyl acetate]	<20	–
CCCC(=O)OC1CCCCC1 [cyclohexyl butyrate]	<20	–
COC1CCCCC1 [cyclohexyl methyl ether]	<20	–
COC(=O)C(C)CCC(=O)N(C)C (stereo not shown) [methyl-5-(dimethylamino)-2-methyl-5-oxopentanoate]	30	–
